# Reference: patent US11856970B2, “Bacillus subtilis for animal feed” (CHR. HANSEN A/S, priority 2018, dated 2024)
# Tested on: E. coli
# Test: Agar well diffusion, screening for inhibition of E. coli
# Format: cell-based, Escherichia coli
# Details: E. coli O147:K89 F4 H19
# Method: The seven pathogenic E. coli and Salmonella spp. strains were each suspended in MRD until McFarland 0.5 was obtained and 10 μL of each pathogen suspension was diluted in approximately 35 ml melted LB agar (max. 42° C.). The inoculated agar was poured into Omni Tray Single-well plates, Immuno TSP plates were attached. After drying the immune TSP plates were removed and the wells were inoculated with 5 μL overnight culture (triplicates) of Bacillus test strains. The plates were incubated aerobically at 30° C. for 48 hours. For the E. coli plates, two replicate plates were used (n=2); for the 10 Salmonella spp. plates, one replicate plate was used (n=1).
# The following positioning of the Bacillus subtilis strains on the plates containing the pathogens was used:
# The concentration of E. coli and Salmonella spp. in the inoculated agar was estimated to be 2.9×10^4 CFU/ml.
smiles,measurement,value
O=C(O)c1cn(C2CC2)c2cc(N3CCNCC3)c(F)cc2c1=O [ciprofloxacin],"inhibition zones (FIG. 2, in words)",Inhibition is also seen
